In patent US11491117B2, “Compounds for the prevention and treatment of glucose intolerance related conditions and obesity” (SORBONNE UNIVERSITÉ, priority 2017, dated 2022):

Key:
[1] = tested on: C57BL/6J mice fed control chow diet (CHD) or high fat diet (HFD); test: Chronic subcutaneous infusion in mice fed control chow or high fat diet: body growth, glucose homeostasis (IPGTT), insulin secretion, organ weight, liver triglycerides; type: in vivo, mouse
Procedure: Six weeks-old C57BL/6J male mice (Janvier Labs, Courtaboeuf, France) were received and acclimated in specific pathogen free (SPF) maintenance condition. Mice had free access to a standard chow diet (R04-40, Safe, Augy, France) and were kept on 12 h light/dark cycle. After one week, a group of 12 mice was fed control carbohydrate diet (CHD) (D 12450Ki, Research diets, NJ) and a group of 12 mice was fed high fat (60% fat and sucrose) diet (HFD) (D12492i, Research diets, NJ).
After three weeks of metabolite treatment (i.e. four weeks of HFD feeding) an intra-peritoneal glucose tolerance test (IPGTT) (2 g/kg) was performed in conscious mice following an overnight fast. Blood was collected from the tail vein before glucose injection and 15, 30, 60 and 120 minutes afterwards. Additional blood samples were collected during the IPGTT in GK rats 15, 90, 180 and 240 minutes after glucose injection. Blood glucose levels were determined using an Accu-Check® Performa (Roche Diagnostics, Meylan, France). Additional blood samples were collected at base line and 30 minutes after glucose injection in Microvette® CB 300 Lithium Heparin (Sarstedt, Marnay, France). Plasma was separated by centrifugation and stored at −80° C. until insulin radioimmunoassay. Evaluation of overall glucose tolerance was obtained from cumulative glycemia (GCum) and the ΔG, which were determined by the total increment of plasma glucose values during the IPGTT (GCum) and the cumulative glycemia during the test above baseline (ΔG). After six weeks of metabolite treatment, mice were killed by decapitation and organ were dissected and weighed. Half of liver, fat and pancreas samples were snap frozen in liquid nitrogen and stored at −80° C. for molecular studies, and the second half processed for histopathology. All procedures were authorized following review by the institutional ethic committee and carried out under national license condition (Ref 00486.02).
Blood glucose was measured using an Accu-Check® Performa (Roche Diagnostics, Meylan, France) and plasma insulin was determined using Insulin ELISA kits (Mercodia, Uppsala, Sweden). For determination of liver triglycerides, liver samples (100 mg) were homogenized and incubated in NonidetP-40 (5%) and supernatants containing triglycerides were collected. Triglycerides concentration was quantified in the supernatant fraction using a colorimetric assay (ab65336, Abcam, Paris, France) by measuring OD at 570 nm. The ratio NAD/NADH was determined using a quantification kit (MAK037; SigmaAldrich, St Quentin, France) on extracts prepared from 20 mg pancreas tissue. Samples were homogenized in the extraction buffer and clarified by centrifugation. Supernatant was deproteinized by filtration through a 10-kDa cutoff spin filter (Millipore SAS, Molsheim, France). The assay was then performed according to the manufacturer's instructions.
As expected, mice fed HFD rapidly gained more weight than mice fed control diet and developed fasting hyperglycemia and marked glucose intolerance (FIG. 1A-1F).

Goto-Kakizaki (GK) rats = test: Chronic subcutaneous infusion in Goto-Kakizaki rats: body and organ weight, glucose homeostasis (IPGTT), insulin secretion; type: in vivo, rat
Procedure: The animal experiments on rats were conducted on diabetic adult 8 months aged male Goto-Kakizaki (GK) rats from the local colony of Paris-Diderot University (Paris, France). GK strain derived after backcrossing of animals selected at the upper limit of normal distribution for glucose tolerance. Characteristics of GK rats have been previously described. Rats had free access to a control carbohydrate diet (CHD) (D 12450Ki, Research diets, NJ) and were kept on 12 h light/dark cycle. […] Rats were killed by decapitation and blood and organs collected for measurement of metabolic parameters, islet isolation for quantitative RT-PCR analysis and immunohistochemistry. […] After three weeks of metabolite treatment (i.e. four weeks of HFD feeding) an intra-peritoneal glucose tolerance test (IPGTT) (2 g/kg) was performed in conscious mice following an overnight fast. Blood was collected from the tail vein before glucose injection and 15, 30, 60 and 120 minutes afterwards. Additional blood samples were collected during the IPGTT in GK rats 15, 90, 180 and 240 minutes after glucose injection. Blood glucose levels were determined using an Accu-Check® Performa (Roche Diagnostics, Meylan, France). Additional blood samples were collected at base line and 30 minutes after glucose injection in Microvette® CB 300 Lithium Heparin ([…], France). Plasma was separated by centrifugation and stored at -80° C. until insulin radioimmunoassay. Evaluation of overall glucose tolerance was obtained from cumulative glycemia (GCum) and the ΔG, which were determined by the total increment of plasma glucose values during the IPGTT (GCum) and the cumulative glycemia during the test above baseline (ΔG). After six weeks of metabolite treatment, mice were killed by decapitation and organ were dissected and weighed. Half of liver, fat and pancreas samples were snap frozen in liquid nitrogen and stored at -80° C. for molecular studies, and the second half processed for histopathology. All procedures were authorized following review by the institutional ethic committee and carried out under national license condition (Ref 00486.02). Blood glucose was measured using an Accu-Check® Performa (Roche Diagnostics, Meylan, France) and plasma insulin was determined using Insulin ELISA kits (Mercodia, Uppsala, Sweden). For determination of liver triglycerides, liver samples (100 mg) were homogenized and incubated in NonidetP-40 (5%) and supernatants containing triglycerides were collected. Triglycerides concentration was quantified in the supernatant fraction using a colorimetric assay (ab65336, Abcam, Paris, France) by measuring OD at 570 nm. The ratio NAD/NADH was determined using a quantification kit (MAK037; […] Samples were homogenized in the extraction buffer and clarified by centrifugation. Supernatant was deproteinized by filtration through a 10-kDa cutoff spin filter (Millipore SAS, Molsheim, France). The assay was then performed according to the manufacturer's instructions.

[2] = mice fed control diet, IPGTT, vs saline

Question: Which “effect on body weight” value ([1]; HFD-fed mice) does the source give for `Cc1ccc(O)cc1` [4-cresol] here?
Answer: The value was “strongly significant”.

Question: And the “effect on glycemic control” value ([1]; HFD-fed mice)?
Answer: The value was “strongly significant”.

Question: What about the “effect on insulin secretion” value ([1]; HFD-fed mice) of the same compound?
Answer: Its value is “strongly significant”.

Question: What about the liver weight ([1]; HFD-fed mice) of the same compound?
Answer: Its liver weight is “reduced”.

Question: What about the ΔG parameter ([1]; HFD-fed mice, IPGTT, vs HFD saline) of the same compound?
Answer: Its ΔG parameter is “normalized to the level of mice fed chow diet and treated with saline”.

Question: And the fasting glycemia ([1]; HFD-fed mice, vs HFD saline)?
Answer: Its fasting glycemia is “strong reduction”.

Question: What about the fasting hyperinsulinemia ([1]; HFD-fed mice, vs HFD saline) of the same compound?
Answer: Its fasting hyperinsulinemia is “strong reduction”.

Question: And the “increase in pancreas weight” value ([1]; both diet groups, 6 weeks, vs saline)?
Answer: Its value is 48.9%.

Question: What about the liver triglycerides content ([1]; both diet groups, vs saline) of the same compound?
Answer: Its liver triglycerides content is “systematic and dramatic reduction”.

Question: What about the heart weight ([1]; mice fed CHD or HFD, 6 weeks) of the same compound?
Answer: Its heart weight is “not affected”.

Question: What about the kidney weight ([1]; mice fed CHD or HFD, 6 weeks) of the same compound?
Answer: Its kidney weight is “not affected”.

Question: And the “acute glycemic response to the glucose challenge” value [1, 2]?
Answer: Its value is “significant reduction”.

Question: And the glucose tolerance [1, 2]?
Answer: Its glucose tolerance is “improved”.

Question: And the BMI ([1]; mice fed control diet, end of experiment, vs saline)?
Answer: The BMI was “significant decrease in BMI”.

Question: What about the body weight ([1]; mice fed control diet, s.c. infusion 0.5 mg/kg/day, 42 days, vs saline) of the same compound?
Answer: Its body weight is “progressive reduction in body weight”.

Question: And the glucose-stimulated insulin secretion ([1]; mice fed control diet, vs controls)?
Answer: The glucose-stimulated insulin secretion was “significant increase”.

Question: And the “cumulative glycemia during the IPGTT” value ([1]; mice fed control diet, vs saline)?
Answer: The value was “significant reduction”.

Question: What about the fasting glycemia (Goto-Kakizaki (GK) rats) of the same compound?
Answer: The fasting glycemia was “significant reduction”.

Question: What about the “glycemic response to the glucose challenge throughout the IPGTT (glucose intolerance)” value (Goto-Kakizaki (GK) rats) of the same compound?
Answer: Its value is “decrease”.

Question: And the cumulative glycemia (Goto-Kakizaki (GK) rats; IPGTT)?
Answer: The cumulative glycemia was “significant drop”.

Question: What about the “increase in pancreas weight” value (Goto-Kakizaki (GK) rats; P<0.01) of the same compound?
Answer: Its value is “+94.6%”.

Question: And the BMI (Goto-Kakizaki (GK) rats; chronic administration 6 weeks)?
Answer: The BMI was “no effect”.

Question: What about the body weight (Goto-Kakizaki (GK) rats; chronic administration 6 weeks) of the same compound?
Answer: The body weight was “no effect”.

Question: What about the fasting insulinemia (Goto-Kakizaki (GK) rats; vs saline) of the same compound?
Answer: The fasting insulinemia was “significantly more elevated”.

Question: What about the “glucose-induced insulin secretion during the IPGTT” value (Goto-Kakizaki (GK) rats; vs saline) of the same compound?
Answer: Its value is “significantly more elevated”.
